According to US20040072753A1, “Peptides for use in the treatment of alzheimer's disease” (priority 2000, published 2004):
Where a SMILES comes first, the peptide text is derived from it.

Key:
recombinant human cdc2 = recombinant human cdc2 (Homo sapiens, UniProt P06493); assay: Binding of biotinylated Aβ peptides to recombinant human cdc2 coated plates (ELISA); details: biotinylated peptide 200 pM, 37° C. 4 hours
Experimental: (§1) After washing to remove unbound material, an alkaline phosphatase polymer-streptavidin conjugate (Sigma, Dorset, UK) was added and incubated at 37° C. for 2 hours.

[1] = biological target: T1, recombinant p34-cdc2/cyclin B1 (Homo sapiens, UniProt P06493); assay: Phosphorylation of biotinylated Aβ peptides by recombinant p34-cdc2/cyclin B1 (32P incorporation); assay type: biochemical; details: 25 μM biotinylated peptide, 10 min at 30° C.
T1 construct: purchased Promega, UK
T1 sequence (P06493 whole entry): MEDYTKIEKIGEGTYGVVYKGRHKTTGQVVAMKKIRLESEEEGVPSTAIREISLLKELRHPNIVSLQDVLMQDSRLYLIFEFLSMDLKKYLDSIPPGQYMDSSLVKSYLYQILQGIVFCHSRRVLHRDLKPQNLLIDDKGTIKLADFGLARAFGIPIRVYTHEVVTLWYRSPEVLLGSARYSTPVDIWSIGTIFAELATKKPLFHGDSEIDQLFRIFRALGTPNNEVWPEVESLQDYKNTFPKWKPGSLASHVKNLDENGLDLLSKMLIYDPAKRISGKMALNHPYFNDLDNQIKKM
T1 sequence (P14635 whole entry partner): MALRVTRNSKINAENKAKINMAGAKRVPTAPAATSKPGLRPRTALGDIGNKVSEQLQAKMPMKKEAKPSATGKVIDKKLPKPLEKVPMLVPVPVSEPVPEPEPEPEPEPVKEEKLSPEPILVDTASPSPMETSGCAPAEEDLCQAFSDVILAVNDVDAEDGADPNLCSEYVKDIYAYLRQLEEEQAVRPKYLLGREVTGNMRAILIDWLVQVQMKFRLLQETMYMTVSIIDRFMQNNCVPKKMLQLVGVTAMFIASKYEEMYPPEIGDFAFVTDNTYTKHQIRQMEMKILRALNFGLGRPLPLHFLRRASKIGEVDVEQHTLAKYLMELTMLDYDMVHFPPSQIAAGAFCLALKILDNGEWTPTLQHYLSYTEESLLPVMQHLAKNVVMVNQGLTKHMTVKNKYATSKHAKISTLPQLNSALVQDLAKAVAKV
From the text: (§2) The membrane was washed four times in 2 M NaCl, followed by four times in 2 M NaCl containing 1% (v/v) H3PO4 and finally twice in deionized H2O to remove unbound material.

[2] = biological target: recombinant human cyclin B1 (Homo sapiens, UniProt P14635); assay: Binding of biotinylated Aβ peptides to cyclin B1 coated plates (ELISA); details: biotinylated peptide
recombinant human cyclin B1, sequence (P14635 whole entry): as the sequence (P14635 whole entry partner) above
Experimental: as §1
Cyclins are co-factors for cdc2 which are required for enzyme activity. These proteins also contain substrate recognition sequences which may play a role in the recruitment of substrate molecules to the active cdc2/cyclin complex. The recombinant cdc2/cyclin enzyme complex used in the above phosphorylation experiments contained cyclin B1. […] Binding assays as described above using cyclin B1 coated plates were carried out.

cdc2/cyclin B1 = biological target: T2, cdc2/cyclin B1 (Homo sapiens, UniProt P06493+P14635); assay: cdc2/cyclin B1 phosphorylation of biotinylated histone H1 substrate peptide; assay type: biochemical
T2 construct: purchased Promega, UK
T2 sequence (P06493 whole entry): as the sequence (P06493 whole entry) above
T2 sequence (P14635 whole entry): as the sequence (P14635 whole entry partner) above
From the text: as §2
Since Aβ binds to both the cdc2 and cyclin B1 components of the active enzyme it is possible that Aβ modulates the activity of the kinase.

biotinylated Aβ 1-42 = biotinylated Aβ 1-42 (Homo sapiens, UniProt P05067); assay: Binding of biotinylated Aβ 1-42 to CAβBP or EAβBP coated plates (ELISA, Scatchard); details: biotinylated peptide 200 pM
biotinylated Aβ 1-42, sequence (P05067 672-713 limits assumed): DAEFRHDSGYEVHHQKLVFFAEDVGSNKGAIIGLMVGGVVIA
Experimental: After washing to remove unbound material, an alkaline phosphatase polymer-streptavidin conjugate (Sigma, Dorset, UK) was added and incubated at 37° C. for 2 hours. After washing to remove unbound material, p-nitrophenylphosphate substrate was added and absorbance at 405 nm determined.

biotinylated Aβ 12-28 = biotinylated Aβ 12-28 (Homo sapiens, UniProt P05067); assay: Binding of biotinylated Aβ 12-28 to CAβBP or EAβBP coated plates (ELISA); details: biotinylated peptide 200 pM
Experimental: Biotinylated Aβ1-42, Aβ12-28 and Aβ 25-35 (from SEQ ID NO. 2) were prepared using a LinKit-Biolink kit (ISL, Paignton, UK). ELISA plates were coated with CAβBP (catalase residues 400409) or EAβBD (ERAB residues 99-108) (1 μg ml^−1) in carbonate buffer and unoccupied sites blocked with 5% (w/v) dried milk. Biotinylated peptides (200 pM) were incubated alone, with control peptides or with unlabelled Aβ peptides in PBS (containing 0.1% BSA and 0.05% Tween-20) at 37° C. for 4 hours. After washing to remove unbound material, an alkaline phosphatase polymer-streptavidin conjugate (Sigma, Dorset, UK) was added and incubated at 37° C. for 2 hours. After washing to remove unbound material, p-nitrophenylphosphate substrate was added and absorbance at 405 nm determined. Affinity constants were determined by incubating catalase or CAβBP coated plates with biotinylated peptides (200 pM) plus Aβ peptides over a range of concentrations (0-100 nM) and detection of bound peptides was carried out by ELISA.

[3] = biological target: T3, catalase EC 1.11.1.6 from human erythrocytes (Homo sapiens, UniProt P04040); assay: Catalase enzyme activity, inhibition by Aβ peptides; assay type: biochemical; details: test peptides 2 μM
T3 construct: catalase EC 1.11.1.6 from human erythrocytes (Sigma, Dorset, UK) was used; purchased Sigma, Dorset, UK; host or cells: human erythrocytes
T3 sequence (P04040 2-527 limits assumed): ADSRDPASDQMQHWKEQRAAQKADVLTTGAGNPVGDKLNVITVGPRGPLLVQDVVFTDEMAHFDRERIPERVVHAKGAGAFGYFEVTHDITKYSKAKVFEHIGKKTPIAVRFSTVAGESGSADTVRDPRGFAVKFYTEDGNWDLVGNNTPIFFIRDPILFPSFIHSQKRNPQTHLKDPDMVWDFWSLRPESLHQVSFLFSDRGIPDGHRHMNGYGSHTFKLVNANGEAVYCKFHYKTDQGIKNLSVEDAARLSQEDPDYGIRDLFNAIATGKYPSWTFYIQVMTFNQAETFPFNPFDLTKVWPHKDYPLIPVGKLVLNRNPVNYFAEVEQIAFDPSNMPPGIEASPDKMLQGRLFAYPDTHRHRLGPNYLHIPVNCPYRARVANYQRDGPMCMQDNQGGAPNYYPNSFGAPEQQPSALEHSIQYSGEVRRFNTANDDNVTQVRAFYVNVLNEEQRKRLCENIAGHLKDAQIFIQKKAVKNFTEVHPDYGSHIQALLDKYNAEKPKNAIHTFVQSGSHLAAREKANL
Experimental: For catalase activity catalase EC 1.11.1.6 from human erythrocytes (Sigma, Dorset, UK) was used for all incubation experiments. Activity of Catalase (5kU I^−1) incubated with test peptides (2 μM) was determined after incubation in 60 mM sodium-potassium phosphate buffer at 37° C. in a total volume of 100 μl. After incubation catalase activity was determined by mixing 50 μl sample with 50 μl substrate (6.5 μmol H2O2 in phosphate buffer) for 60 secs, adding 100 μl of 32.4 mM ammonium molybdate and measurement of absorbance change at 405 nm. Catalase activity was calculated from a standard curve (0-10OkU I^−1) using purified human catalase of known activity (Milton, Biochem. J. 344: 293-296 (1999)).

[4] = test system: SP2/0-Ag-14 mouse myeloma cells; assay: Cytotoxicity of Aβ peptides, trypan blue dye exclusion; assay type: cell-based; details: test peptides 20 μM, 24 hours
Experimental: SP2/0-Ag-14 mouse myeloma cells were maintained in RPMI 1640 medium containing 10% fetal calf serum at 37° C. in a 5% CO2 humidified atmosphere. For cytotoxicity experiments 2×1 05 cells were plated in 24 well dishes in 1 ml PBS containing 0.1% BSA and test peptides (20 μM) for 24 hours. Cell viability was determined by trypan blue dye exclusion with at least 100 cells counted per well (Milton, Biochem. J. 344: 293-296 (1999)).

recombinant human cdc2, sequence (P06493 whole entry): as the sequence (P06493 whole entry) above

binding of biotinylated Aβ 1-42 (biotinylated Aβ 1-42)	binding of biotinylated Aβ 12-28 (biotinylated Aβ 12-28)	block of the inhibition of catalase enzyme activity by Aβ 1-42 [3]	Compound	binding to human cdc2 (recombinant human cdc2)	phosphorylation by cdc2 (incorporation of 32P from γ32P-ATP) [1]	binding to cyclin B1 [2]	effect on phosphorylation of the H1 peptide by cdc2/cyclin B1 (cdc2/cyclin B1)	block of the cytotoxicity of Aβ 1-42 [4]	block of the cytotoxicity of Aβ fragments containing residues 17-35 [4]
–	–	–	Aβ 25-35: functional neurotoxic domain fragment of Aβ (GSNKGAIIGLM)	bound	incorporated	bound	increased	–	–
specifically bound	specifically bound	no effect	CC(C)C[C@H](NC(=O)[C@H](CC(N)=O)NC(=O)[C@H](Cc1ccc(O)cc1)NC(=O)[C@@H](NC(=O)[C@@H](N)CCCCN)[C@@H](C)O)C(=O)N[C@@H](CCCCN)C(=O)N[C@@H](CCCCN)C(=O)NCC(=O)N[C@@H](CCC(N)=O)C(=O)N[C@H](C(=O)O)[C@@H](C)O [EAβBP] (H-KTYNLKKGQT-OH; N-terminus and C-terminus assumed)	–	–	–	–	able to block	able to block
